In the supplement of paper PMC4862054:

Key:
MDA-MB-436 = conditions: 72 h
Procedure, shortened: (§1)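 A 20 µl suspension of breast cancer cells was placed in 384-well plates that already contained compound at 5 concentrations in 10-fold steps across a compound-specific 10,000-fold range, and the plates were left for 72 h. CellTox Green fluorescence at 485/520 nm gave cell death, and CellTiter-Glo luminescence, read after 10 min at room temperature, gave viability. Each plate was normalised to 0.1 % DMSO and a positive kill control. EC50 was fitted from the curves and censored at the top concentration.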

DU-4475 [1] = conditions: 72 h
Procedure, shortened: as §1

CAL-148 = conditions: 72 h
Procedure, shortened: as §1

HDQ-P1 [2] = conditions: 72 h
Procedure, shortened: as §1

CAL-120 = conditions: 72 h
Procedure, shortened: as §1

MCF-10A = conditions: 72 h
Procedure, shortened: as §1

CAL-51 [3] = conditions: 72 h
Procedure, shortened: as §1

SK-BR-3 = conditions: 72 h
Procedure, shortened: as §1

MDA-MB-231 [4] = conditions: 72 h
Procedure, shortened: as §1

BT-474 = conditions: 72 h
Procedure, shortened: as §1

BT-549 [5] = conditions: 72 h
Procedure, shortened: as §1

Hs578T = conditions: 72 h
Procedure, shortened: as §1

CAL-85-1 [6] = conditions: 72 h
Procedure, shortened: (§2)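 Rows with a drug sensitivity score of zero were dropped, and EC50 was taken from the fitted percent-inhibition dose-response curve, censored at the highest concentration. Data were normalised on each plate to vehicle and a positive kill control and checked by Z'-factor. The assay seeded breast cancer cell lines in 20 µl onto 384-well plates pre-loaded with compound in 5 µl medium for 72 h, then added 2.5 µl CellTiter-Blue for 2 h at 37 °C and read fluorescence at 560/590 nm.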

DU-4475 [7] = conditions: 72 h; remark: listed apart in the source
Procedure, shortened: as §2

HDQ-P1 [8] = conditions: 72 h; remark: listed apart in the source
Procedure, shortened: as §2

MDA-MB-453 [9] = conditions: 72 h
Procedure, shortened: as §2

CAL-51 [10] = conditions: 72 h; remark: listed apart in the source
Procedure, shortened: as §2

CAL-85-1 [11] = test: normalised viability (% of control), CellTiter-Blue; higher = more viable cells (about 100 = DMSO control); conditions: 10 nM; incubation time: 72 h
Procedure, shortened: (§3)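 Breast cancer cell lines were treated for 72 h in 384-well format and measured by CellTiter-Blue fluorescence at 560/590 nm. Results were normalised per plate to vehicle (100) and a positive kill control (0). The entry is normalised viability at a single listed concentration of the series.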

HCC1599 [12] = test: as above; conditions: 100 nM; incubation time: 72 h
Procedure, shortened: as §3

HDQ-P1 [13] = test: as above; conditions: 10 nM; incubation time: 72 h
Procedure, shortened: as §3

CAL-51 [14] = test: as above; conditions: 10 nM; incubation time: 72 h
Procedure, shortened: as §3

HCC1143 [15] = test: as above; conditions: 100 nM; incubation time: 72 h
Procedure, shortened: as §3

MDA-MB-231 [16] = test: as above; conditions: 100 nM; incubation time: 72 h
Procedure, shortened: as §3

BT-549 [17] = test: as above; conditions: 100 nM; incubation time: 72 h
Procedure, shortened: as §3

MFM-223 = conditions: 72 h
Procedure, shortened: as §1

HCC1143 [18] = conditions: 72 h
Procedure, shortened: as §1

HCC1937 = conditions: 72 h
Procedure, shortened: as §1

CAL-85-1 [19] = conditions: 72 h; remark: listed apart in the source
Procedure, shortened: as §1

HCC1599 [20] = conditions: 72 h
Procedure, shortened: as §1

MDA-MB-453 [21] = conditions: 72 h; remark: listed apart in the source
Procedure, shortened: as §1

EC50, CellTiter-Glo (MDA-MB-436) [µM] | EC50, CellTiter-Glo (SK-BR-3) [µM] | EC50, CellTiter-Glo (MDA-MB-231 [4]) [µM] | EC50, CellTiter-Glo (BT-474) [µM] | EC50, CellTiter-Glo (BT-549 [5]) [µM] | EC50, CellTiter-Blue viability (MDA-MB-453 [9]) [µM] | EC50, CellTiter-Glo (HCC1143 [18]) [µM] | EC50, CellTiter-Glo (HCC1937) [µM] | EC50, CellTiter-Glo (HCC1599 [20]) [µM] | EC50, CellTiter-Glo (MDA-MB-453 [21]) [µM] | Structure (SMILES) | EC50, CellTiter-Glo (DU-4475 [1]) [µM] | EC50, CellTiter-Glo (CAL-148) [µM] | EC50, CellTiter-Glo (HDQ-P1 [2]) [µM] | EC50, CellTiter-Glo (CAL-120) [µM] | EC50, CellTiter-Glo (MCF-10A) [µM] | EC50, CellTiter-Glo (CAL-51 [3]) [µM] | EC50, CellTiter-Glo (Hs578T) [µM] | EC50, CellTiter-Blue viability (CAL-85-1 [6]) [µM] | EC50, CellTiter-Blue viability (DU-4475 [7]) [µM] | EC50, CellTiter-Blue viability (HDQ-P1 [8]) [µM] | EC50, CellTiter-Blue viability (CAL-51 [10]) [µM] | normalised viability (CAL-85-1 [11]) [%] | normalised viability (HCC1599 [12]) [%] | normalised viability (HDQ-P1 [13]) [%] | normalised viability (CAL-51 [14]) [%] | normalised viability (HCC1143 [15]) [%] | normalised viability (MDA-MB-231 [16]) [%] | normalised viability (BT-549 [17]) [%] | EC50, CellTiter-Glo (MFM-223) [µM] | EC50, CellTiter-Glo (CAL-85-1 [19]) [µM]
3.67 | 1.88 | 1.5 | 0.206 | 4.29 | – | – | – | – | – | CCn1c(-c2nonc2N)nc2cnc(Oc3cccc(NC(=O)c4ccc(OCCN5CCOCC5)cc4)c3)cc21 | > 10 | 1.24 | 2.17 | 0.512 | 0.0378 | 4.64 | 2.05 | – | – | – | – | – | – | – | – | – | – | – | – | –
– | – | – | – | – | 0.851 | – | – | – | – | Cc1cc(Nc2cc(CN3CCOCC3)c3nc(C)c(Cc4ccc(Cl)cc4F)n3n2)n[nH]1 | – | – | – | – | – | – | – | 2.65 | 2.13 | 0.93 | 2.15 | 91.6 | 122 | 92.8 | 95 | 71.4 | 102 | 93.5 | – | –
– | 2.58 | – | 0.857 | 1.52 | – | 2.64 | > 10 | – | – | N#Cc1ccc(COC[C@H]2O[C@@H](n3c(NCc4ccc(Cl)c(Cl)c4)nc4c(N)ncnc43)[C@H](O)[C@@H]2O)cc1 | 1.17 | – | 3.55 | – | 2.65 | – | 1.74 | – | 2.32 | – | – | 110 | 97.1 | 116 | 109 | 94.7 | 90.1 | 95.2 | 4.53 | –
1.56 | 6.39 | 1.43 | 2.16 | 0.548 | – | 7.82 | 4.06 | 5.83 | 8.35 | COc1cc(O)c2c(c1)/C=C/C[C@H](O)[C@H](O)C(=O)/C=C\C[C@H](C)OC2=O [(5Z)-7-Oxozeaenol] | 0.173 | 1.47 | 2.33 | 2.45 | 0.532 | 3.77 | 3.25 | – | – | – | – | – | – | – | – | – | – | – | 2.17 | 0.605
– | 0.97 | – | 2.62 | – | 6.4 | – | – | 8.24 | – | COc1cc(OC2CCN(C)CC2)ccc1Nc1ncc2c(n1)n(C1CCCC1)c(=O)n2C [AZ 3146] | – | – | – | – | 9.26 | 1.01 | – | 3.24 | 5.18 | – | 1.39 | 94.8 | 90.1 | 79.1 | 92.3 | 133 | 96.1 | 85 | – | 3.78
0.121 | 0.116 | 0.316 | 0.286 | 0.228 | – | 0.366 | 0.285 | 3.62 | 0.195 | CNC(=O)c1cccc(-c2ccc3c(N4CCOC[C@@H]4C)nc(N4CCOC[C@@H]4C)nc3n2)c1 [AZD2014] | 1.4 | 0.395 | 0.12 | 0.224 | 0.493 | 0.131 | 0.459 | – | – | – | – | – | – | – | – | – | – | – | 0.123 | 0.29
